The values that follow come from patent US20250026745A1 (Bluejay Therapeutics, Inc., priority 2023, published 2025).

For the assay, the target named is recombinant 17β-HSD13 protein (Homo sapiens (Human), UniProt Q7Z5P4). In words: 17β-HSD13 biochemical assay (NAD+/NADH Glo chemiluminescence). The note with it: 17β-HSD13 50 nM, NAD+ 10 mM, β-estradiol 20 μM, 2 hours room temperature. The method, then: 17β-HSD13 biochemical assays are generically described in patents WO 2022/020730, WO 2021/003295, and WO 2023/023310. More specifically, recombinant 17β-HSD13 protein was assayed in a buffer containing 200 mM Tris pH 7.5, 0.01% Triton X-100, and 0.02% BSA into a 384-well assay plate. Compounds were incubated with 17β-HSD13 (final 50 nM) and NAD+ (final 10 mM) at room temperature for 1 h prior to substrate addition. The assay reaction was then initiated by addition of β-estradiol (final 20 μM), and the reaction mixture was incubated for 2 hours at room temperature. Product formation was detected with chemiluminescence by adding equal volume of NAD+/NADH Glo reagent (Promega, #G9062) and read on a PHERAstar microplate reader (BMG LABTECH). IC50 values were determined with GraphPad Prism®, where log-transformed concentration values and the inhibition data were fitted to a four-parameter logistic equation. Y=Bottom+(Top−Bottom)/(1+10^((Log IC50−X)*HillSlope)). The original, % control, or % inhibition data are represented by Y along with their minimal (Bottom) and maximal (Top) values. The inhibitor concentration is represented by X, IC50 is the concentration at 50% maximal value, and Hill Slope is the slope factor.
Sequence of recombinant 17β-HSD13 protein (Q7Z5P4 20-300): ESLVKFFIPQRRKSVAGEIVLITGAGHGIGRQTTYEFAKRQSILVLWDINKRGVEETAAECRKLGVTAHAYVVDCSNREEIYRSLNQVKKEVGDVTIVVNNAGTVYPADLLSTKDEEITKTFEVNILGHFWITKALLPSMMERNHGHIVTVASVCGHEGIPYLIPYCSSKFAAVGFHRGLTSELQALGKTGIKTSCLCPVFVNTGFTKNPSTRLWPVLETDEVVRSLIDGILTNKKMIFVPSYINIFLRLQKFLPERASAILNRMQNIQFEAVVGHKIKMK

On to `O=C1N(CC(F)(F)F)C(=O)C2(CC2)N1Cc1nnc(-c2ccc(F)c(O)n2)s1` [Compound I-73, 4-((5-(5-fluoro-6-hydroxypyridin-2-yl)-1,3,4-thiadiazol-2-yl)methyl)-6-(2,2,2-trifluoroethyl)-4,6-diazaspiro[2.4]heptane-5,7-dione], for which the IC50 – broadly, the midpoint of a concentration-inhibition curve – is 1390 nM.
Next, `COc1ccc(CN2C(=O)N(Cc3nnc(-c4ccc(F)c(O)c4Cl)s3)C3(CC3)C2=O)c(F)c1` [Compound I-44, 4-((5-(2-chloro-4-fluoro-3-hydroxyphenyl)-1,3,4-thiadiazol-2-yl)methyl)-6-(2-fluoro-4-methoxybenzyl)-4,6-diazaspiro[2.4]heptane-5,7-dione]: 7.38 nM; `O=C1N(CC(F)(F)F)C(=O)C2(CC2)N1Cc1nnc(-c2cc(C3CC3)c(F)c(O)c2F)s1` [Compound I-62, 4-((5-(5-cyclopropyl-2,4-difluoro-3-hydroxyphenyl)-1,3,4-thiadiazol-2-yl)methyl)-6-(2,2,2-trifluoroethyl)-4,6-diazaspiro[2.4]heptane-5,7-dione]: 84.9 nM; `O=C1N(CC(F)(F)F)C(=O)C2(CC2)N1Cc1nnc(-c2cc(C(F)(F)F)c(F)c(O)c2F)s1` [Compound I-56, 4-((5-(2,4-difluoro-3-hydroxy-5-(trifluoromethyl)phenyl)-1,3,4-thiadiazol-2-yl)methyl)-6-(2,2,2-trifluoroethyl)-4,6-diazaspiro[2.4]heptane-5,7-dione]: 12.5 nM.
Next, `O=C1NC(=O)C2(CC2)N1Cc1nnc(-c2ccc(F)c(O)c2F)s1` [Compound I-27, 4-((5-(2,4-difluoro-3-hydroxyphenyl)-1,3,4-thiadiazol-2-yl)methyl)-4,6-diazaspiro[2.4]heptane-5,7-dione]: 355 nM.
Turning to `C[C@@H](c1ccccc1)N1C(=O)N(Cc2nnc(-c3ccc(F)c(O)n3)s2)C2(CC2)C1=O` [Compound I-80, (S)-4-((5-(5-fluoro-6-hydroxypyridin-2-yl)-1,3,4-thiadiazol-2-yl)methyl)-6-(1-phenylethyl)-4,6-diazaspiro[2.4]heptane-5,7-dione], the IC50 is 76.8 nM.
With `O=C1N(CC2(C(F)(F)F)CC2)C(=O)C2(CC2)N1Cc1nnc(-c2ccc(Cl)c(O)c2F)s1` [Compound I-25, 4-((5-(4-chloro-2-fluoro-3-hydroxyphenyl)-1,3,4-thiadiazol-2-yl)methyl)-6-((1-(trifluoromethyl)cyclopropyl)methyl)-4,6-diazaspiro[2.4]heptane-5,7-dione], the IC50 came out at 146 nM.
For `CC(C)(C)N1C(=O)N(Cc2nnc(-c3ccc(F)c(O)n3)s2)C2(CC2)C1=O` [Compound I-81, 6-(tert-butyl)-4-((5-(5-fluoro-6-hydroxypyridin-2-yl)-1,3,4-thiadiazol-2-yl)methyl)-4,6-diazaspiro[2.4]heptane-5,7-dione], the IC50 was 602 nM.
As to `O=C1N(Cc2ncccn2)C(=O)C2(CC2)N1Cc1nnc(-c2ccc(F)c(O)c2F)s1` [Compound I-21, 4-((5-(2,4-difluoro-3-hydroxyphenyl)-1,3,4-thiadiazol-2-yl)methyl)-6-(pyrimidin-2-ylmethyl)-4,6-diazaspiro[2.4]heptane-5,7-dione], the IC50 was determined as 620 nM.
With `O=C1N(CC(F)F)C(=O)C2(CC2)N1Cc1nnc(-c2ccc(F)c(O)c2F)s1` [Compound I-92, 4-((5-(2,4-difluoro-3-hydroxyphenyl)-1,3,4-thiadiazol-2-yl)methyl)-6-(2,2-difluoroethyl)-4,6-diazaspiro[2.4]heptane-5,7-dione], the IC50 came to 14.3 nM.
As for `O=C1N(Cc2ccccc2)C(=O)C2(CC2)N1Cc1nnc(-c2cc(C(F)(F)F)c(F)c(O)n2)s1` [Compound I-61, 6-benzyl-4-((5-(5-fluoro-6-hydroxy-4-(trifluoromethyl)pyridin-2-yl)-1,3,4-thiadiazol-2-yl)methyl)-4,6-diazaspiro[2.4]heptane-5,7-dione], the figure is 505 nM.
As for `O=C1N(Cc2nnc(-c3ccc(F)c(O)c3F)s2)C2(CC2)C(=O)N1C1(C(F)(F)F)CC1` [Compound I-87, 4-((5-(2,4-difluoro-3-hydroxyphenyl)-1,3,4-thiadiazol-2-yl)methyl)-6-(1-(trifluoromethyl)cyclopropyl)-4,6-diazaspiro[2.4]heptane-5,7-dione], the IC50 amounted to 11.3 nM.
Regarding `O=C1N(Cc2ccc(F)cc2F)C(=O)C2(CC2)N1Cc1nnc(-c2ccc(F)c(O)c2Cl)s1` [Compound I-33, 4-((5-(2-chloro-4-fluoro-3-hydroxyphenyl)-1,3,4-thiadiazol-2-yl)methyl)-6-(2,4-difluorobenzyl)-4,6-diazaspiro[2.4]heptane-5,7-dione], the IC50 was found to be 8.83 nM.
As to `C[C@H](c1ccccc1)N1C(=O)N(Cc2nnc(-c3ccc(F)c(O)n3)s2)C2(CC2)C1=O` [Compound I-79, (R)-4-((5-(5-fluoro-6-hydroxypyridin-2-yl)-1,3,4-thiadiazol-2-yl)methyl)-6-(1-phenylethyl)-4,6-diazaspiro[2.4]heptane-5,7-dione], the IC50 stood at 122 nM.
With `C[C@@H](CO)N1C(=O)N(Cc2nnc(-c3ccc(F)c(O)c3F)s2)C2(CC2)C1=O` [Compound I-47, (S)-4-((5-(2,4-difluoro-3-hydroxyphenyl)-1,3,4-thiadiazol-2-yl)methyl)-6-(1-hydroxypropan-2-yl)-4,6-diazaspiro[2.4]heptane-5,7-dione], the IC50 is 53 nM.
`O=C1N(C(c2ccccc2)c2ccccc2)C(=O)C2(CC2)N1Cc1nnc(-c2ccc(F)c(O)c2F)s1` [Compound I-95, 6-benzhydryl-4-((5-(2,4-difluoro-3-hydroxyphenyl)-1,3,4-thiadiazol-2-yl)methyl)-4,6-diazaspiro[2.4]heptane-5,7-dione]: the IC50 was found to be 62 nM.
With `CC(C)(C)N1C(=O)N(Cc2nnc(-c3ccc(F)c(O)c3F)s2)C2(CC2)C1=O` [Compound I-84, 6-(tert-butyl)-4-((5-(2,4-difluoro-3-hydroxyphenyl)-1,3,4-thiadiazol-2-yl)methyl)-4,6-diazaspiro[2.4]heptane-5,7-dione], the IC50 amounted to 4.07 nM.
Turning to `O=C1N(Cc2ccccc2)C(=O)C2(CC2)N1Cc1nnc(-c2cc(C3CC3)c(F)c(O)c2F)s1` [Compound I-63, 6-benzyl-4-((5-(5-cyclopropyl-2,4-difluoro-3-hydroxyphenyl)-1,3,4-thiadiazol-2-yl)methyl)-4,6-diazaspiro[2.4]heptane-5,7-dione], the IC50 is 18 nM.
As for `O=C1N([C@@H](c2ccc(F)cc2F)C(F)(F)F)C(=O)C2(CC2)N1Cc1nnc(-c2ccc(F)c(O)c2F)s1` [Compound I-90B, (S)-4-((5-(2,4-difluoro-3-hydroxyphenyl)-1,3,4-thiadiazol-2-yl)methyl)-6-(1-(2,4-difluorophenyl)-2,2,2-trifluoroethyl)-4,6-diazaspiro[2.4]heptane-5,7-dione], the figure is 6.53 nM.
As for `CCN1C(=O)N(Cc2nnc(-c3ccc(F)c(O)c3F)s2)C(C)(C)C1=O` [Compound I-8, 1-((5-(2,4-difluoro-3-hydroxyphenyl)-1,3,4-thiadiazol-2-yl)methyl)-3-ethyl-5,5-dimethylimidazolidine-2,4-dione], the IC50 was determined as 90.8 nM.
With `O=C1N(CCc2ccccc2)C(=O)C2(CC2)N1Cc1nnc(-c2ccc(F)c(O)c2Cl)s1` [Compound I-37, 4-((5-(2-chloro-4-fluoro-3-hydroxyphenyl)-1,3,4-thiadiazol-2-yl)methyl)-6-phenethyl-4,6-diazaspiro[2.4]heptane-5,7-dione], the IC50 came out at 32.7 nM.
With `CCN1C(=O)N(Cc2nnc(-c3cnc(Cl)c(O)c3)s2)C2(CC2)C1=O` [Compound I-12, 4-((5-(6-chloro-5-hydroxypyridin-3-yl)-1,3,4-thiadiazol-2-yl)methyl)-6-ethyl-4,6-diazaspiro[2.4]heptane-5,7-dione], the IC50 amounted to 323 nM.
Next, `O=C1N(CC(F)(F)F)C(=O)C2(CC2)N1Cc1nnc(-c2cncc(O)c2Cl)s1` [Compound I-18, 4-((5-(4-chloro-5-hydroxypyridin-3-yl)-1,3,4-thiadiazol-2-yl)methyl)-6-(2,2,2-trifluoroethyl)-4,6-diazaspiro[2.4]heptane-5,7-dione]: 193 nM; `O=C1N(Cc2nnc(-c3ccc(F)c(O)c3Cl)s2)C2(CC2)C(=O)N1C1(c2ccccc2)CC1` [Compound I-103, 4-((5-(2-chloro-4-fluoro-3-hydroxyphenyl)-1,3,4-thiadiazol-2-yl)methyl)-6-(1-phenylcyclopropyl)-4,6-diazaspiro[2.4]heptane-5,7-dione]: 4.39 nM; “(R)-4-((5-(2,4-difluoro-3- hydroxyphenyl)-1,3,4-thiadiazol-2- yl)methyl)-6-(1-hydroxypropan-2- yl)-4,6-diazaspiro[2.4]heptane-5,7- dione [Compound I-46]”: 66 nM.
Turning to `C[C@@H](COCC(=O)O)N1C(=O)N(Cc2nnc(-c3ccc(F)c(O)c3F)s2)C2(CC2)C1=O` [Compound I-49], the IC50 came to 426 nM.
In the case of `O=C(O)CN1C(=O)N(Cc2nnc(-c3ccc(F)c(O)c3Cl)s2)C2(CC2)C1=O` [Compound I-45, 2-(4-((5-(2-chloro-4-fluoro-3-hydroxyphenyl)-1,3,4-thiadiazol-2-yl)methyl)-5,7-dioxo-4,6-diazaspiro[2.4]heptan-6-yl)acetic acid], the IC50 came out at 1030 nM.
